Experiments:
Test in all cases: Test B pre-/postemergence plant response
Format in all cases: in vivo
[1] = test system: green foxtail (Setaria viridis); settings: for Foxtail, Green plant response rating (0 to 100 scale): 62 g ai/ha, 0 is no effect, 13 to 15 days
Outline: (§1)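 Seeds sown in loam–sand blend were treated preemergence, and plants at 2–18 cm (1- to 4-leaf stage) in peat-based medium were treated postemergence; compounds were formulated in non-phytotoxic solvent with surfactant. After 13–15 days in greenhouse, response was visually rated against controls, 0 (no effect) to 100 (complete control).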

[2] = test system: downy bromegrass (Bromus tectorum); settings: for Bromegrass, Downy plant response rating (0 to 100 scale): 62 g ai/ha, 0 is no effect, 13 to 15 days
Outline: as §1

[3] = test system: yellow nutsedge (Cyperus esculentus); settings: for Nutsedge, Yellow plant response rating (0 to 100 scale): 62 g ai/ha, 0 is no effect, 13 to 15 days
Outline: as §1

[4] = test system: morningglory (Ipomoea coccinea); settings: for Morningglory plant response rating (0 to 100 scale): 62 g ai/ha, 0 is no effect, 13 to 15 days
Outline: as §1

corn (Zea mays) = settings: for Corn plant response rating (0 to 100 scale): 62 g ai/ha, 0 is no effect, 13 to 15 days
Outline: as §1

[5] = test system: ragweed (common ragweed, Ambrosia elatior); settings: for Ragweed plant response rating (0 to 100 scale): 62 g ai/ha, 0 is no effect, 13 to 15 days
Outline: as §1

[6] = test system: Italian ryegrass (Lolium multiflorum); settings: for Ryegrass, Italian plant response rating (0 to 100 scale): 62 g ai/ha, 0 is no effect, 13 to 15 days
Outline: as §1

[7] = test system: goosegrass (Eleusine indica); settings: for Goosegrass plant response rating (0 to 100 scale): 62 g ai/ha, 0 is no effect, 13 to 15 days
Outline: as §1

[8] = test system: woolly cupgrass (Eriochloa villosa); settings: for Cupgrass, Woolly plant response rating (0 to 100 scale): 62 g ai/ha, 0 is no effect, 13 to 15 days
Outline: as §1

[9] = test system: bermudagrass (Cynodon dactylon); settings: for Bermudagrass plant response rating (0 to 100 scale): 62 g ai/ha, 0 is no effect, 13 to 15 days
Outline: as §1

[10] = test system: giant foxtail (Setaria faberii); settings: for Foxtail, Giant plant response rating (0 to 100 scale): 62 g ai/ha, 0 is no effect, 13 to 15 days
Outline: as §1

[11] = test system: large crabgrass (Digitaria sanguinalis); settings: for Crabgrass, Large plant response rating (0 to 100 scale): 62 g ai/ha, 0 is no effect, 13 to 15 days
Outline: as §1

[12] = test system: johnsongrass (Sorghum halepense); settings: for Johnsongrass plant response rating (0 to 100 scale): 62 g ai/ha, 0 is no effect, 13 to 15 days
Outline: as §1

[13] = 31 g ai/ha, postemergence, scale 0 to 100, 0 is no effect, 100 is complete control
[14] = postemergence, 100 is complete control
[15] = Postemergence, 125 g ai/ha, scale 0 to 100 (0 no effect, 100 complete control)
[16] = Postemergence, 250 g ai/ha, scale 0 to 100 (0 no effect, 100 complete control)
[17] = Postemergence, 125 g ai/ha, visual rating after 13 to 15 days, scale 0 (no effect) to 100 (complete control)

SMILES: COCCn1c(-c2cccc(C)c2)ncc(C(=O)C2=C(O)CCCC2=O)c1=O [Compound 117]
- Plant response rating, Foxtail, Green [1, 13]: 50
- Foxtail, Green plant response rating (0 to 100 scale) [1, 14]: 70
- Plant response rating, Foxtail, Green [1, 15]: 80
- Plant response rating, Foxtail, Green [1, 16]: 95
- Plant response rating, Bromegrass, Downy [2, 13]: 5
- Bromegrass, Downy plant response rating (0 to 100 scale) [2, 14]: 10
- Plant response rating, Bromegrass, Downy [2, 15]: 15
- Plant response rating, Bromegrass, Downy [2, 16]: 45
- Plant response rating, Nutsedge, Yellow [3, 13]: 0
- Nutsedge, Yellow plant response rating (0 to 100 scale) [3, 14]: 0
- Plant response rating, Nutsedge, Yellow [3, 15]: 25
- Plant response rating, Nutsedge, Yellow [3, 16]: 35
- Plant response rating, Morningglory [4, 13]: 10
- Morningglory plant response rating (0 to 100 scale) [4, 14]: 75
- Plant response rating, Morningglory [4, 15]: 80
- Plant response rating, Morningglory [4, 16]: 100
- Plant response rating, Corn (corn (Zea mays); [13]): 10
- Corn plant response rating (0 to 100 scale) (corn (Zea mays); [14]): 15
- Plant response rating, Corn (corn (Zea mays); [15]): 25
- Plant response rating, Corn (corn (Zea mays); [16]): 25
- Ragweed plant response rating (0 to 100 scale) [5, 14]: 75
- Plant response rating, Ragweed [5, 15]: 90
- Plant response rating, Ragweed [5, 16]: 98
- Ryegrass, Italian plant response rating (0 to 100 scale) [6, 14]: 10
- Plant response rating, Ryegrass, Italian [6, 15]: 15
- Plant response rating, Ryegrass, Italian [6, 16]: 50
- Plant response rating, Goosegrass [7, 13]: 45
- Goosegrass plant response rating (0 to 100 scale) [7, 14]: 75
- Plant response rating, Goosegrass [7, 15]: 75
- Plant response rating, Goosegrass [7, 16]: 85
- Plant response rating, Cupgrass, Woolly [8, 13]: 65
- Cupgrass, Woolly plant response rating (0 to 100 scale) [8, 14]: 85
- Plant response rating, Cupgrass, Woolly [8, 15]: 95
- Plant response rating, Cupgrass, Woolly [8, 16]: 98
- Plant response rating, Bermudagrass [9, 13]: 75
- Bermudagrass plant response rating (0 to 100 scale) [9, 14]: 90
- Plant response rating, Bermudagrass [9, 15]: 95
- Plant response rating, Bermudagrass [9, 16]: 100
- Plant response rating, Foxtail, Giant [10, 13]: 65
- Foxtail, Giant plant response rating (0 to 100 scale) [10, 14]: 75
- Plant response rating, Foxtail, Giant [10, 15]: 80
- Plant response rating, Foxtail, Giant [10, 16]: 95
- Plant response rating, Crabgrass, Large [11, 13]: 75
- Crabgrass, Large plant response rating (0 to 100 scale) [11, 14]: 80
- Plant response rating, Crabgrass, Large [11, 15]: 95
- Plant response rating, Crabgrass, Large [11, 16]: 95
- Plant response rating, Johnsongrass [12, 13]: 5
- Johnsongrass plant response rating (0 to 100 scale) [12, 14]: 20
- Plant response rating, Johnsongrass [12, 16]: 25

SMILES: CCCCn1c(-c2ccccc2)ncc(C(=O)C2=C(O)CCCC2=O)c1=O [Compound 86]
- Plant response rating, Foxtail, Green [1, 13]: 70
- Foxtail, Green plant response rating (0 to 100 scale) [1, 14]: 95
- Plant response rating, Foxtail, Green [1, 16]: 100
- Plant response rating, Bromegrass, Downy [2, 13]: 10
- Bromegrass, Downy plant response rating (0 to 100 scale) [2, 14]: 10
- Plant response rating, Bromegrass, Downy [2, 17]: 35
- Plant response rating, Bromegrass, Downy [2, 16]: 50
- Plant response rating, Nutsedge, Yellow [3, 13]: 65
- Nutsedge, Yellow plant response rating (0 to 100 scale) [3, 14]: 70
- Plant response rating, Nutsedge, Yellow [3, 16]: 85
- Plant response rating, Morningglory [4, 13]: 70
- Morningglory plant response rating (0 to 100 scale) [4, 14]: 80
- Plant response rating, Morningglory [4, 16]: 100
- Plant response rating, Corn (corn (Zea mays); [13]): 10
- Corn plant response rating (0 to 100 scale) (corn (Zea mays); [14]): 60
- Plant response rating, Corn (corn (Zea mays); [17]): 80
- Plant response rating, Corn (corn (Zea mays); [16]): 85
- Plant response rating, Ragweed [5, 13]: 80
- Ragweed plant response rating (0 to 100 scale) [5, 14]: 90
- Plant response rating, Ragweed [5, 16]: 98
- Plant response rating, Ryegrass, Italian [6, 13]: 25
- Ryegrass, Italian plant response rating (0 to 100 scale) [6, 14]: 30
- Plant response rating, Ryegrass, Italian [6, 16]: 60
- Plant response rating, Goosegrass [7, 13]: 70
- Goosegrass plant response rating (0 to 100 scale) [7, 14]: 75
- Plant response rating, Goosegrass [7, 16]: 95
- Plant response rating, Cupgrass, Woolly [8, 13]: 75
- Cupgrass, Woolly plant response rating (0 to 100 scale) [8, 14]: 85
- Plant response rating, Cupgrass, Woolly [8, 17]: 95
- Plant response rating, Cupgrass, Woolly [8, 16]: 95
- Plant response rating, Bermudagrass [9, 13]: 85
- Bermudagrass plant response rating (0 to 100 scale) [9, 14]: 90
- Plant response rating, Bermudagrass [9, 17]: 95
- Plant response rating, Bermudagrass [9, 16]: 95
- Plant response rating, Foxtail, Giant [10, 13]: 90
- Foxtail, Giant plant response rating (0 to 100 scale) [10, 14]: 95
- Plant response rating, Foxtail, Giant [10, 16]: 98
- Plant response rating, Crabgrass, Large [11, 13]: 85
- Crabgrass, Large plant response rating (0 to 100 scale) [11, 14]: 98
- Plant response rating, Crabgrass, Large [11, 17]: 98
- Plant response rating, Crabgrass, Large [11, 16]: 98
- Plant response rating, Johnsongrass [12, 13]: 95
- Johnsongrass plant response rating (0 to 100 scale) [12, 14]: 98
- Plant response rating, Johnsongrass [12, 16]: 100
